Assay results published in ChEMBL document CHEMBL4118236, “Click Chemistry-Based Discovery of [3-Hydroxy-5-(1 H-1,2,3-triazol-4-yl)picolinoyl]glycines as Orally Active Hypoxia-Inducing Factor Prolyl Hydroxylase Inhibitors with Favorable Safety Profiles for the Treatment of Anemia” (J Med Chem, 2018).
Converted amounts (≈) assume the structure as drawn.

Columns and labels:
HEK293 = experiment: Cytotoxicity against HEK293 cells assessed as reduction in cell viability at 10 to 100 uM after 72 hrs by MTT assay; format: cell-based; settings: human, hek293, 72 h
Hep 3B2 = experiment: Cytotoxicity against human Hep3B cells assessed as reduction in cell viability at 10 to 100 uM after 72 hrs by MTT assay; format: cell-based; settings: hep 3b2, 72 h
HUVEC = experiment: Cytotoxicity against HUVEC assessed as reduction in cell viability at 10 to 100 uM after 72 hrs by MTT assay; format: cell-based; settings: human
L02 = experiment: Cytotoxicity against human L02 cells assessed as reduction in cell viability at 10 to 100 uM after 72 hrs by MTT assay; format: cell-based; settings: l02, 72 h
[1] = Dissociation constant, pKa of the compound by potentiometric titration method; format: physicochemical
Mus musculus [2] = experiment: Antianemic activity in C57BL/6 mouse cisplatin-induced anemia model assessed as increase in hemoglobin level at 10 mg/kg, po administered every other day for 30 days relative to control; format: functional
[3] = Effective permeability of the compound at pH 7.4 by PAMPA; format: ADME; settings: read-out: Peff
[4] = Lipophilicity, log D of the compound at pH 7.4 by potentiometric titration method; format: physicochemical; settings: buffer
[5] = Intrinsic aqueous solubility of the compound at pH 7.4 by potentiometric titration method; format: physicochemical; settings: buffer
Mus musculus [6] = experiment: Antianemic activity in C57BL/6 mouse cisplatin-induced anemia model assessed as increase in hemoglobin level at 25 mg/kg, po administered every other day for 30 days relative to control; format: functional
[7] = MRT (0 to infinity) in Sprague-Dawley rat at 10 mg/kg, po by LC-MS/MS; format: ADME, organism-based; settings: in vivo
[8] = Clearance in Sprague-Dawley rat at 10 mg/kg, po by LC-MS/MS; format: ADME, organism-based; settings: in vivo
Rattus norvegicus [9] = experiment: AUC (0 to t) in Sprague-Dawley rat at 1 mg/kg, iv by LC-MS/MS; format: ADME, organism-based; settings: in vivo
[10] = Half life in Sprague-Dawley rat at 10 mg/kg, po by LC-MS/MS; format: ADME, organism-based; settings: in vivo
Rattus norvegicus [11] = experiment: AUC (0 to infinity) in Sprague-Dawley rat at 10 mg/kg, po by LC-MS/MS; format: ADME, organism-based; design: dose 10 mg/kg, time infinity, route oral; settings: in vivo
Mus musculus [12] = experiment: Cardiotoxicity in C57BL/6 mouse at 25 to 200 mg/kg, po administered every other day for 14 days measured on day 14 post last dose by H and E staining based assay; format: toxicity, organism-based; settings: in vivo, 336 h
[13] = Cmax in Sprague-Dawley rat at 10 mg/kg, po by LC-MS/MS; format: ADME, organism-based; design: dose 10 mg/kg, route oral; settings: in vivo
Rattus norvegicus [14] = experiment: AUC (0 to t) in Sprague-Dawley rat at 10 mg/kg, po by LC-MS/MS; format: ADME, organism-based; settings: in vivo
Mus musculus [15] = experiment: Hepatotoxicity in C57BL/6 mouse at 25 to 200 mg/kg, po administered every other day for 14 days measured on day 14 post last dose by H and E staining based assay; format: toxicity, organism-based; settings: in vivo, 336 h
Mus musculus [16] = experiment: Acute toxicity in C57BL/6 mouse assessed as effect on growth at 25 to 200 mg/kg, po administered every other day for 14 days; format: organism-based; settings: in vivo, 336 h
Rattus norvegicus [17] = experiment: Apparent volume of distribution in Sprague-Dawley rat at 10 mg/kg, po by LC-MS/MS; format: ADME, organism-based; settings: in vivo
Mus musculus [18] = experiment: Toxicity in C57BL/6 mouse assessed as damage in lungs at 25 to 200 mg/kg, po administered every other day for 14 days measured on day 14 post last dose by H and E staining based assay; format: organism-based; settings: in vivo, 336 h
Mus musculus [19] = experiment: Acute toxicity in C57BL/6 mouse assessed as effect on food intake at 25 to 200 mg/kg, po administered every other day for 14 days measured during compound dosing; format: organism-based; settings: in vivo, 336 h
Mus musculus [20] = experiment: Acute toxicity in C57BL/6 mouse assessed as change in heart to body weight ratio at 25 to 200 mg/kg, po administered every other day for 14 days measured on day 14 post last dose; format: organism-based; settings: in vivo, 336 h
Mus musculus [21] = experiment: Acute toxicity in C57BL/6 mouse assessed as change in lungs to body weight ratio at 25 to 200 mg/kg, po administered every other day for 14 days measured on day 14 post last dose; format: organism-based; settings: in vivo, 336 h
Mus musculus [22] = experiment: Acute toxicity in C57BL/6 mouse assessed as change in kidney to body weight ratio at 25 to 200 mg/kg, po administered every other day for 14 days measured on day 14 post last dose; format: organism-based; settings: in vivo, 336 h
[23] = Oral bioavailability in Sprague-Dawley rat at 10 mg/kg by LC-MS/MS; format: ADME, organism-based; settings: in vivo
Mus musculus [24] = experiment: Upregulation of plasma EPO level in C57BL/6 mouse assessed as EPO level at 50 mg/kg, po after 4 hrs by ELISA; format: functional
Mus musculus [25] = experiment: Acute toxicity in C57BL/6 mouse assessed as change in spleen to body weight ratio at 25 to 200 mg/kg, po administered every other day for 14 days measured on day 14 post last dose; format: organism-based; settings: in vivo, 336 h
[26] = Half life in Sprague-Dawley rat at 1 mg/kg, iv by LC-MS/MS; format: ADME, organism-based; settings: in vivo
[27] = Tmax in Sprague-Dawley rat at 10 mg/kg, po by LC-MS/MS; format: ADME, organism-based; settings: in vivo
Egl nine homolog 1 [28] = biological target: T1, Egl nine homolog 1 (Homo sapiens, UniProt Q9GZT9)
Mus musculus [29] = experiment: Acute toxicity in C57BL/6 mouse assessed as change in liver to body weight ratio at 25 to 200 mg/kg, po administered every other day for 14 days measured on day 14 post last dose; format: organism-based; settings: in vivo, 336 h
Mus musculus [30] = experiment: Nephrotoxicity in C57BL/6 mouse at 25 to 200 mg/kg, po administered every other day for 14 days measured on day 14 post last dose by H and E staining based assay; format: toxicity, organism-based; settings: in vivo, 336 h
Mus musculus [31] = experiment: Acute toxicity in C57BL/6 mouse assessed as apparent signs of toxicity at 25 to 200 mg/kg, po administered every other day for 14 days; format: organism-based; settings: in vivo, 336 h
Rattus norvegicus [32] = experiment: AUC (0 to infinity) in Sprague-Dawley rat at 1 mg/kg, iv by LC-MS/MS; format: ADME, organism-based; design: dose 1 mg/kg, route intravenous, time infinity; settings: in vivo
[33] = MRT (0 to infinity) in Sprague-Dawley rat at 1 mg/kg, iv by LC-MS/MS; format: ADME, organism-based; settings: in vivo
Mus musculus [34] = experiment: Acute toxicity in C57BL/6 mouse assessed as behavioral abnormality at 25 to 200 mg/kg, po administered every other day for 14 days; format: organism-based; settings: in vivo, 336 h
[35] = Clearance in Sprague-Dawley rat at 1 mg/kg, iv by LC-MS/MS; format: ADME, organism-based; settings: in vivo
[36] = Apparent volume of distribution in Sprague-Dawley rat at 1 mg/kg, iv by LC-MS/MS; format: ADME, organism-based; settings: in vivo, read-out: Vz
Egl nine homolog 1 [37] = biological target: T1, Egl nine homolog 1; remark: listed apart in the source
[38] = Therapeutic index, ratio of compound effect for toxicity in C57BL/6 mouse to compound effect for upregulation of plasma EPO level in C57BL/6 mouse; format: organism-based; settings: read-out: TI
Mus musculus [39] = experiment: Toxicity in C57BL/6 mouse assessed as damage in spleen at 25 to 200 mg/kg, po administered every other day for 14 days measured on day 14 post last dose by H and E staining based assay; format: organism-based; settings: in vivo, 336 h
Mus musculus [40] = experiment: Acute toxicity in C57BL/6 mouse assessed as increase in body weight at 25 to 200 mg/kg, po administered every other day for 14 days measured during compound dosing; format: organism-based; settings: in vivo, 336 h

T1 sequence (Q9GZT9 whole entry): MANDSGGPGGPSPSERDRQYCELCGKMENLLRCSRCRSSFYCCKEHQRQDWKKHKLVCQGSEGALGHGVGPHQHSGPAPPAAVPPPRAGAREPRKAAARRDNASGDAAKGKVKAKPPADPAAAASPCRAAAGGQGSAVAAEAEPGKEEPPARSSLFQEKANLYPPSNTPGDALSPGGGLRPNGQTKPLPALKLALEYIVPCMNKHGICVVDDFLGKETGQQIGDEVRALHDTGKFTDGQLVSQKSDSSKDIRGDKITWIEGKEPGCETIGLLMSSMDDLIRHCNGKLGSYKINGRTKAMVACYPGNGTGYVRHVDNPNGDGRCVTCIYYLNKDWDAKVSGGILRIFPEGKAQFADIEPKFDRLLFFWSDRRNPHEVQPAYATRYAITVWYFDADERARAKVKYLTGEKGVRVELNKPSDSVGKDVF

SMILES: O=C(O)CNC(=O)c1ncc(-c2cn(CCc3ccc(Cl)cc3)nn2)cc1O
- Activity (HEK293): Non-Toxic
- Activity (Hep 3B2): Non-Toxic
- Activity (HUVEC): Non-Toxic
- Activity (L02): Non-Toxic

SMILES: Cc1nc(C(=O)NCC(=O)O)c(O)c2ccc(Oc3ccccc3)cc12 [ROXADUSTAT]
- Activity (HEK293): Non-Toxic
- pKa [1]: 3.15
- Activity (Mus musculus [2]): 67.7%
- Papp [3]: 12.7 ×10⁻⁶ cm/s
- logD [4]: 3.77
- solubility [5]: 255 µg/mL (≈ 725 µM)
- Activity (Mus musculus [6]): 92.5%
- Activity (Hep 3B2): Non-Toxic
- Activity (HUVEC): Non-Toxic
- Activity (L02): Non-Toxic

SMILES: O=C(O)CNC(=O)c1ncc(-c2cn(CCCc3ccc(Cl)cc3)nn2)cc1O
- MRT inf [7]: 3.28 h
- Activity (HEK293): Non-Toxic
- CL/F [8]: 31.2 mL/min/kg
- AUCt (Rattus norvegicus [9]): 923 ng·h/mL
- half-life [10]: 3.07 h
- AUC (Rattus norvegicus [11]): 5440 ng·h/mL
- Activity (Mus musculus [12]): Non-Toxic
- Cmax [13]: 1550 ng/mL
- pKa [1]: 3.21
- AUCt (Rattus norvegicus [14]): 4990 ng·h/mL
- Activity (Mus musculus [2]): 61.9%
- Papp [3]: 11.5 ×10⁻⁶ cm/s
- Activity (Mus musculus [15]): Non-Toxic
- Activity (Mus musculus [16]): Non-Toxic
- Vz (Rattus norvegicus [17]): 8.634 L/kg
- logD [4]: 2.13
- Activity (Mus musculus [18]): Non-Toxic
- Activity (Mus musculus [19]): Non-Toxic
- Activity (Mus musculus [20]): Non-Toxic
- Activity (Mus musculus [21]): Non-Toxic
- Activity (Mus musculus [22]): Non-Toxic
- bioavailability [23]: 54.1%
- Activity (Mus musculus [24]): 1300 pg/mL
- Activity (Mus musculus [25]): Non-Toxic
- solubility [5]: 1180 µg/mL (≈ 2850 µM)
- half-life [26]: 1.51 h
- Tmax [27]: 0.917 h
- IC50 (Egl nine homolog 1 [28]): 62.2 nM
- Activity (Mus musculus [29]): Non-Toxic
- Activity (Mus musculus [30]): Non-Toxic
- Activity (Mus musculus [31]): Non-Toxic
- AUC (Rattus norvegicus [32]): 933 ng·h/mL
- MRT inf [33]: 0.623 h
- Activity (Mus musculus [6]): 96.7%
- Activity (Mus musculus [34]): Non-Toxic
- Activity (Hep 3B2): Non-Toxic
- clearance [35]: 19.4 mL/min/kg
- Vd [36]: 2.31 L/kg
- IC50 (Egl nine homolog 1 [37]): 1310 nM
- Activity (HUVEC): Non-Toxic
- selectivity ratio [38]: 10
- Activity (Mus musculus [39]): Non-Toxic
- Activity (Mus musculus [40]): Toxic
- Activity (L02): Non-Toxic
